# Results published in patent US20240418723A1, “SEQUENTIAL TREATMENTS AND BIOMARKERS TO REVERSE RESISTANCE TO KINASE INHIBITORS” (Queen Mary University of London, priority 2021, published 2024).
# Experiments:
# P31/Fuj AML cells = assay: Sequential treatment of P31/Fuj cells (ATRA or LSD1 inhibitor 5 days, then MEKi 3 days; also co-treatment and reverse treatment): cell viability, cell number, apoptosis, CDI; type: cell-based; conditions: for drug interaction with MEKi in sequential treatment (CDI): alternative LSD1 inhibitor 5 days then trametinib 3 days, P31/Fuj cells (FIGS. 10 D, E)
# Description: The Bliss independence model was used to derive coefficients of drug interaction (CDI) values, where CDI <1 indicates significant priming by the […] (synergistic effect).
# For the proliferation/viability assays, cells were seeded in T75 flasks (0.5×10^6 cells/mL of RPMI/FBS medium) and exposed for 5 days to either vehicle or epigenetic modifier. Unless otherwise specified, the final concentration for GSK2879552 (LSD1i), […] (EZH2i), pinometostat (DOT1Li) and ATRA was 1 μM while for decitabine (DNMTAi) and vorinostat (HDACi) was 100 nM; all epigenetic inhibitors were diluted in DMSO, while ATRA was diluted in Et-OH. Vehicle concentration was kept at 0.1%. […] The final concentration of DMSO was kept at 0.1%. Finally, cells were transferred to 96-well plates (100 μL per well in 3 technical replicates per condition) and cell viability and proliferation were assessed using Guava and ApoTox-Glo Triplex analyses, as indicated below.
# For Guava analysis, cells were stained with Guava ViaCount reagent (Luminex #4000-0040) in 96-well plates, by mixing 150 μL of cell suspension with 75 μL of reagent, and left to incubate for a minimum of 10 minutes in the dark, after which they were processed through a Guava easyCyte flow cytometer (Luminex #0500-5005). Flow cytometry data were analysed using CytoSoft (v2.5.7). Viability and cell number values were expressed relative to vehicle control.
# For ApoTox-Glo analysis, cell suspensions were transferred to opaque 96-well plates (100 μL per well) and viability and apoptosis measured using ApoTox-Glo Triplex Assay (Promega #G6320). 20 μL of Viability/Cytotoxicity reagent (containing GF-AFC and bis-AAF-R110 substrates) were added to each well, then incubated at 37° C. for 1 hour. Live cell and cytotoxicity outputs were measured on FLUOstar Omega microplate reader (BMG Labtech). To obtain the live cell output, fluorescence was measured at 355EX/520EM (wavelengths in nm); for the cytotoxicity output, fluorescence was measured at 485EX/520EM. Following this, 100 μL of Caspase-Glo 3/7 reagent were added to each well and incubated at 25° C. for 1 hour. Luminescence was then measured on FLUOstar Omega microplate reader (BMG Labtech). The fluorescence and luminescence signals thus obtained were corrected to the respective background controls (culture medium with no cells). Relative cell number values were obtained by normalising live cell outputs to vehicle control. Apoptosis values were obtained by dividing luminescence outputs to the respective live cell outputs, then normalising to vehicle control.
# The extent of drug interaction was calculated in Microsoft Excel 2016 using the CDI formula AB/(A*B), where AB is the normalized reduction in cell viability of the sequential treatment, and A and B are the effects of single treatments. Statistical significance of CDI values for each AML sample was determined using a one sample t-test (base R package) with the null hypothesis being that the mean Log2(CDI) equals 0.
# P31/Fuj cells = assay: Phosphoproteomics (LC-MS/MS) and kinase network analysis of treated P31/Fuj cells
# Description: To study ATRA effect over the phosphoproteome, P31/Fuj cells (10×10^6 cells at 0.5×10^6 cell/mL) were seeded in T75 flask and treated with either Et-OH, 1 μM ATRA or 10 μM ATRA for 5 days. […] For both experiments, cells were collected by centrifugation (1500 rpm for 5 min at 5° C.), then cell pellets were washed twice with ice cold PBS supplemented with phosphatase inhibitors (1 mM Na3VO4, 1 mM NaF) and stored at −80° C. Pellets were processed for phosphoproteomics analysis as indicated below.
# In brief, cell pellets were lysed in 300 μL of urea buffer (8 M urea in 20 mM HEPES, pH 8.0, supplemented with 1 mM Na3VO4, 1 mM NaF, 1 mM Na4P2O7 and 1 mM P-glycerophosphate). Lysates were further homogenized by sonication (30 cycles of 30 s on 30 s off; Diagenode Bioruptor® Plus) and insoluble material was removed by centrifugation. Protein was quantified using BCA (Thermo Fisher Scientific). Then, 500 μg of protein were subjected to cysteine alkylation using sequential incubation with 10 mM dithiothreitol (DDT) and 16.6 mM iodoacetamide (IAM) for 1 h and 30 min, respectively, at 25° C. with agitation. Trypsin beads (50% slurry of TLCK-trypsin; Thermo Fisher Scientific; Cat. #20230) were equilibrated with 3 washes with 20 mM HEPES (pH 8.0), the urea concentration in the protein suspensions was reduced to 2 M by the addition of 20 mM HEPES (pH 8.0), 100 μL of equilibrated trypsin beads were added and the samples were incubated overnight at 37° C. Trypsin beads were removed by centrifugation (2000×g at 5° C. for 5 min) and the resulting peptide solutions were desalted through Oasis HLB cartridges (Waters) following the manufacturer's indications. Briefly, cartridges were set in a vacuum manifold device and the pressure was adjusted to 5 mmHg. Then, cartridges were conditioned with 1 mL acetonitrile (ACN) and equilibrated with 2.5 mL of wash solution (0.1% trifluoroacetic acid (TFA), 2% ACN). Peptides were loaded in the cartridges and washed with 1 mL of wash solution. Finally, peptides were eluted with 500 μL of glycolic acid buffer 1 (1 M glycolic acid, 5% TFA, 50% ACN). Enrichment of phosphorylated peptides was performed with TiO2 Beads (GL Sciences). The eluents were normalized to 1 mL with glycolic acid buffer 2 (1 M glycolic acid, 5% TFA, 80% ACN) and incubated with 50 μl of TiO2 buffer (50% slurry in 1% TFA) for 5 min at room temperature. TiO2 beads were packed by centrifugation into empty spin columns (Glygen Corporation; Cat. TT2EMT) previously washed with ACN. TiO2 beads were sequentially washed by centrifugation (1500×g for 3 min) with 100 μL of glycolic acid buffer 2, ammonium acetate solution (100 mM ammonium acetate in 25% ACN) and twice with neutral solution (10% ACN). For phosphopeptide elution, spin tips were transferred to fresh tubes, 50 μL of elution solution (5% NH4OH, 7.5% ACN) were added and tips were centrifuged at 1500×g for 3 min. The elution step was repeated a total of 4 times. Finally, samples were snap frozen, dried in a SpeedVac and phosphopeptide pellets were stored at −80° C.
smiles,measurement,setting,value
"Cl.Cl.NC1CCC(N[C@@H]2C[C@H]2c2ccccc2)CC1 (relative stereo) [ORY-1001, rel-N1-[(1R,2S)-2-phenylcyclopropyl]-1,4-cyclohexanediamine, dihydrochloride]",drug interaction with MEKi in sequential treatment (CDI),P31/Fuj AML cells,synergistic interactions with MEKi
"CC1=C(/C=C/C(C)=C/C=C/C(C)=C/C(=O)O)C(C)(C)CCC1 [ATRA, all-trans-retinoic acid]","sensitisation to MEKi (trametinib) treatment, cell viability","P31/Fuj AML cells; ATRA pre-treatment for five days, then trametinib, P31/Fuj cells (FIG. 2B)",sensitised myeloid P31/Fuj cells to MEKi treatment
same,phosphorylation of the MAPK and PI3K pathway markers ERK1 pY204 and c-MYC pT58/pS62,"P31/Fuj cells; ATRA 1 or 10 μM, 5 days, P31/Fuj cells (FIG. 9B)",decreased
same,phosphorylation of CEBPE and LTB4R,"P31/Fuj cells; ATRA 1 or 10 μM, 5 days, dose-dependent manner, P31/Fuj cells (FIG. 9B)",increasing
same,axes containing CDKL5 and stress kinases such as STK4,"P31/Fuj cells; ATRA 5 days, P31/Fuj cells",increasing
same,phosphorylation of MAPK1 and PI3K signaling axes,"P31/Fuj cells; ATRA 5 days, P31/Fuj cells",decreased
COc1ccc(-c2c(-c3ccc(C#N)c(F)c3)nc(N3CCC(N)CC3)n(C)c2=O)cc1F [CC-90011],drug interaction with MEKi in sequential treatment (CDI),P31/Fuj AML cells,synergistic interactions with MEKi
